Measurements: PubChem BioAssay (NCI)
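Step 1: Grow cells in 96-well plates. Step 2: Expose to compound for 48 hours at 5 concentrations. Step 3: Interpolate endpoints linearly; if unreached, use highest concentration. Definition used: TGI = concentration required for complete inhibition of growth.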

Legend:
Experiment in all cases: NCI-60 cell line screen, 48 h
OVCAR-8 ovarian = tested on: OVCAR-8 ovarian
DLD-1 colon = tested on: DLD-1 colon
SN12C renal = tested on: SN12C renal
SK-MEL-5 melanoma = tested on: SK-MEL-5 melanoma
UACC-62 melanoma = tested on: UACC-62 melanoma
TK-10 renal = tested on: TK-10 renal
UO-31 renal = tested on: UO-31 renal
UACC-257 melanoma = tested on: UACC-257 melanoma
M14 melanoma = tested on: M14 melanoma
HCT-116 colon = tested on: HCT-116 colon
KM20L2 colon = tested on: KM20L2 colon
LOX IMVI melanoma = tested on: LOX IMVI melanoma
RXF-631 renal = tested on: RXF-631 renal
SK-MEL-28 melanoma = tested on: SK-MEL-28 melanoma
NCI-H226 lung = tested on: NCI-H226 lung
HOP-62 NSCLC = tested on: HOP-62 NSCLC
A549 NSCLC = tested on: A549 NSCLC
CCRF-CEM leukemia = tested on: CCRF-CEM leukemia
SNB-78 CNS = tested on: SNB-78 CNS
NCI-H522 lung = tested on: NCI-H522 lung
HCT-15 colon = tested on: HCT-15 colon
OVCAR-4 ovarian = tested on: OVCAR-4 ovarian
HOP-92 NSCLC = tested on: HOP-92 NSCLC
NCI-H23 lung = tested on: NCI-H23 lung
SK-OV-3 ovarian = tested on: SK-OV-3 ovarian
EKVX NSCLC = tested on: EKVX NSCLC
COLO 205 colon = tested on: COLO 205 colon
SNB-19 CNS = tested on: SNB-19 CNS
HT29 colon = tested on: HT29 colon
IGROV1 ovarian = tested on: IGROV1 ovarian
SF-268 CNS = tested on: SF-268 CNS
U251 CNS = tested on: U251 CNS
OVCAR-3 ovarian = tested on: OVCAR-3 ovarian
K-562 leukemia = tested on: K-562 leukemia
OVCAR-5 ovarian = tested on: OVCAR-5 ovarian
RXF 393 renal = tested on: RXF 393 renal
NCI-H460 lung = tested on: NCI-H460 lung
LXFL 529 NSCLC = tested on: LXFL 529 NSCLC
MALME-3M melanoma = tested on: MALME-3M melanoma
SK-MEL-2 melanoma = tested on: SK-MEL-2 melanoma
MOLT-4 leukemia = tested on: MOLT-4 leukemia
SW-620 colon = tested on: SW-620 colon
A498 renal = tested on: A498 renal
SF-295 CNS = tested on: SF-295 CNS
HOP-18 NSCLC = tested on: HOP-18 NSCLC
KM12 colon = tested on: KM12 colon
786-0 renal = tested on: 786-0 renal
SF-539 CNS = tested on: SF-539 CNS
ACHN renal = tested on: ACHN renal
SNB-75 CNS = tested on: SNB-75 CNS
RPMI-8226 leukemia = tested on: RPMI-8226 leukemia
M19-MEL melanoma = tested on: M19-MEL melanoma
CAKI-1 renal = tested on: CAKI-1 renal
DMS 114 small cell lung = tested on: DMS 114 small cell lung
HCC-2998 colon = tested on: HCC-2998 colon
DMS 273 small cell lung = tested on: DMS 273 small cell lung
SR leukemia = tested on: SR leukemia
HL-60(TB) leukemia = tested on: HL-60(TB) leukemia
XF 498 CNS = tested on: XF 498 CNS

Measured: TGI

O=C(CC1(O)C(=O)Nc2ccc(Br)cc21)c1ccc(Cl)cc1 (stereo not given)
98 µM: UACC-257 melanoma
87.6 µM: HOP-92 NSCLC
95.1 µM: U251 CNS
38.2 µM: LOX IMVI melanoma
77.7 µM: SNB-75 CNS
not listed: M19-MEL melanoma | CAKI-1 renal | DMS 114 small cell lung | HCC-2998 colon | DMS 273 small cell lung | SR leukemia | HL-60(TB) leukemia | XF 498 CNS
> 100 µM: all other assays above

Cc1ccc(C(=O)O/N=C2/CCCCC2CN(C)C)cc1 (stereo not given)
not listed: SNB-19 CNS | SF-268 CNS | SW-620 colon | XF 498 CNS
> 100 µM: all other assays above

O=c1[nH]c(=O)n(C2CC(O)C(CO)O2)cc1C(OCC(F)(F)F)OCC(F)(F)F (stereo not given)
not listed: HCT-116 colon | NCI-H226 lung | HCT-15 colon | HOP-18 NSCLC | SR leukemia
> 100 µM: all other assays above

OCCN(CCO)c1cccc(N(CCO)CCO)c1
92.2 µM: UO-31 renal
not listed: SN12C renal | NCI-H226 lung | HT29 colon | IGROV1 ovarian | OVCAR-5 ovarian | MALME-3M melanoma | HOP-18 NSCLC | SF-539 CNS | HCC-2998 colon
> 100 µM: all other assays above
